Read-outs that look alike come from different tables or passages of the source.
Tests used:
[1] = Growth, feed conversion and carcass composition of broilers raised in floor pens for 7 weeks; format: in vivo; settings: 7 weeks
Description: Compound V (bitolterol) was compared to clenbuterol for effects on growth, feed conversion and carcass composition of broilers raised in floor pens for 7 weeks. […] Bitolterol at the highest dose improved rate of gain 2.6% (P 0.01), feed conversion 3.8% (P 0.05) and carcass protein 4.9% (P 0.10).
Clenbuterol at 0.5 ppm in the diet was administered for 7 weeks to one group and only during the last 4 weeks to another group. […] Clenbuterol given for 7 weeks improved feed conversion 3.5% (P 0.05) and appeared to improve (not significant) rate of gain 0.4%, carcass weight 0.7% and carcass protein 4.0% and to decrease (not significant) carcass fat 7.1%.

[2] = Toxicity (general statement)
[3] = Growth promoting activity / feed utilization in livestock (general statements); format: in vivo
Rat Adipose Tissue = assay: Stimulation of lipolysis (glycerol production) in chopped rat adipose tissue; format: cell-based; settings: Rattus norvegicus, 2 h
Description: (§1) Fat was collected from freshly killed animals as follows: epididymal and perirenal fat from 150 to 200 g male rates; perirenal fat from 20 to 25 kg whether lambs, and perirenal and omental fat from 35 to 50 kg gilts. Immediately after collection, fat was placed in a siliconized beaker (all glassware was siliconized) containing Krebs-Ringer bicarbonate solution (KRB; pH 7.4) at 37° C. Fat was transferred to a clean beaker and finely chopped with scissors. Chopped fat was then used as such (whole adipose preparation) or treated with collagenase (isolated adipocytes).
Whole adipose tissue from the rat (0.3 ml) or isolated adipocytes from sheep or swine (1 ml) were placed in plastic scintillation vials containing FSM (1.7 or 1 ml, respectively) and test compounds, and incubated at 37° C. for 2 hours. […] Isoproterenol, at the same concentrations, was used as a positive control. After incubation, media was removed and assayed for glycerol by a fluorometric modification of the method of Wieland (1974. Glycerol UV-method. pp. 1404. In: Bergmeyer (Ed.) Methods of Enzymatic Analysis. Verlag Chemie Weinham, Academic Press, New York). […]

[4] = test system: Isolated Chicken Hepatocytes; assay: Inhibition of lipogenesis (14C acetate incorporation) in isolated chicken hepatocytes; format: cell-based; settings: for inhibition at 0.01 µM / inhibition at 0.05 µM / inhibition at 0.25 µM: Gallus gallus, Hepatocyte, 2 h, Test 1, read-out: percent change compared to control, 14C acetate incorporation in fatty acids; for antilipogenic activity relative to clenbuterol / antilipogenic activity relative to isoproterenol: chicken hepatocytes
Description: Determination of anti-lipogenic activity in hepatocytes
Hepatocytes were isolated from chicken liver using the procedure for adipocytes and incubated for 2 hours at 37° C. in the presence of ^14 C acetate and test compounds. […] Isoproterenol, at the same concentrations, was used as a positive control. After incubation, 8 ml Doles reagent (isopropanol:hexane:H2 SO4, 40:10:1) was added and incubation vials were shaken at room temperature for 30 minutes. Vial contents were poured into 50 ml screw-cap tubes. Vials were then rinsed with 6 ml hexane which was poured into the appropriate 50 ml tube. Tubes were shaken by hand, 10 ml H2 O was added, and tubes were shaken again. After phase separation, 2 ml of the upper (hexane) phase was removed to scintillation vials. Hexane was evaporated by a gentle air flow and the remaining lipids were resuspended in 10 ml Scinti Verse II. ^14 C was counted in a Packard liquid scintillation counter. Data are reported as CPM of ^14 C acetate incorporated into total lipids.

[5] = test system: Isolated Ovine Adipocytes; assay: Stimulation of lipolysis (glycerol production) in isolated ovine adipocytes; format: cell-based, sheep; settings: for activation at 0.05 µM / activation at 0.01 µM: Ovis aries, Adipocyte, 2 h
Description: as §1
(§2) Chopped fat was placed in a shaker containing 70 ml cell dispersion medium (CDM; 5 mM glucose, 0.1% collagenase, 4% bovine serum albumin (BSA), in KRB) and incubated at 37° C. for 1 hour with gentle shaking. Fat was then filtered to remove clumps and washed 4 times with washing medium (WM; 2.5 mM glucose, 1% BSA, in KRB) and 1 time with final suspension medium (FSM; 2.5 mM glucose, 2% essentially fatty acid free BSA, in KRB). Isolated adipocytes were then resuspended in the required amount of FSM (1 ml/flask, 3 flasks/treatment).
(§3) Whole adipose tissue from the rat (0.3 ml) or isolated adipocytes from sheep or swine (1 ml) were placed in plastic scintillation vials containing FSM (1.7 or 1 ml, respectively) and test compounds, and incubated at 37° C. for 2 hours. […] Isoproterenol, at the same concentrations, was used as a positive control. After incubation, media was removed and assayed for glycerol by a fluorometric modification of the method of Wieland (1974. Glycerol UV-method. pp. 1404. In: Bergmeyer (Ed.) Methods of Enzymatic Analysis. Verlag Chemie Weinham, Academic Press, New York).

[6] = test system: Isolated Swine Adipocytes; assay: Stimulation of lipolysis (glycerol production) in isolated swine adipocytes; format: cell-based; settings: Sus scrofa, Adipocyte, 2 h
Description: as §1, §2, §3

[7] = In vivo testing in rats: growth, feed conversion and carcass composition; parameters: species or system rat (male Charles River CD); settings: in diet, dose equivalent to 20 ppm clenbuterol (clenbuterol: 10)
From the text: Eighty intact, male Charles River CD rats, 75-90 g, were housed and maintained on rat chow and water ad libitum. After four days acclimation ten rats per group were randomized by weight to treatment and pen. Compounds to be tested were premixed and added to ground rat chow using doses equivalent to 20 ppm of clenbuterol on a molecular weight basis. It had previously been determined 10 ppm of clenbuterol was the minimum dose needed to give maximum improvements in gain and feed conversion. Therefore, the results of any compound tested should cause responses similar to clenbuterol if the compound has half or more the activity of clenbuterol.

[8] = Test 1, read-out: percent increase compared to control, glycerol production
[9] = Test 1, 0.01 μM, read-out: percent increase compared to control, glycerol production
[10] = read-out: percent increase compared to control, glycerol production, Test 1
[11] = read-out: percent increase compared to control, glycerol production, Test 2

| SMILES | activity in all species under consideration [3] | activation at 0.01 µM (Rat Adipose Tissue; [8]) [%] | activation at 0.05 µM (Rat Adipose Tissue; [8]) [%] | activation at 0.25 µM (Rat Adipose Tissue; [8]) [%] | inhibition at 0.01 µM [4] [%] | inhibition at 0.05 µM [4] [%] | inhibition at 0.25 µM [4] [%] | activation at 0.05 µM [5, 8] [%] | activation at 0.01 µM [6, 8] [%] | activation at 0.05 µM [6, 8] [%] | activation at 0.25 µM [6, 8] [%] | Gain ([7]; Test 1, control 7.3) [g/day] | Feed Intake ([7]; Test 1, control 18.6) [g/day] | Weight ([7]; Test 1, control 191.8) [g] | Carcass Composition % of Change over Control, Fat ([7]; Test 1) [%] | Carcass Composition % of Change over Control, Protein ([7]; Test 1) [%] | antilipogenic activity relative to clenbuterol [4] | antilipogenic activity relative to isoproterenol [4] | activation at 0.01 µM [5, 9] [%] | other results |
| --- | --- | --- | --- | --- | --- | --- | --- | --- | --- | --- | --- | --- | --- | --- | --- | --- | --- | --- | --- | --- |
| Cc1ccc(C(=O)Oc2ccc(C(O)CNC(C)(C)C)cc2OC(=O)c2ccc(C)cc2)cc1 (stereo not shown) [Compound V, Bitolterol] | high activity in all species under consideration | 17 | 33 | 111 | 0 | 34 | 64.6 | 435 | 7 | 47 | 147 | 7.3 | 18.7 | 192.2 | -4.3 | 3.1 | – | – | – | carcass fat (in words) ([1]; 0.5, 1.0 and 2.0 ppm in diet): did not reduce carcass fat; rate of gain, feed conversion and carcass protein, dose response ([1]; 0.5, 1.0 and 2.0 ppm in diet): improved rate of gain, feed conversion and carcass protein in a dose-related manner; improvement of rate of gain ([1]; 2.0 ppm in diet (highest dose), P 0.01): 2.6%; improvement of feed conversion ([1]; 2.0 ppm in diet (highest dose), P 0.05): 3.8%; improvement of carcass protein ([1]; 2.0 ppm in diet (highest dose), P 0.10): 4.9%; responses compared with clenbuterol at 0.5 ppm ([1]; 2.0 ppm in diet): better than those observed with clenbuterol at 0.5 ppm; level of toxicity [2]: very low level of toxicity; level of activity ([3]; in vivo): high level of activity; percent increase compared to control, glycerol production ([5]; Test 1, 0.01 μM): inactive |
| CC(C)(Cc1ccccc1)NCC(O)c1ccc(O)c(NS(C)(=O)=O)c1 (stereo not shown) [I, Zinterol] | high activity in all species under consideration | 90 | 129 | 281 | 45.2 | 61.3 | 66 | 960 | 87 | 100 | 53 | 7.8 | 19.2 | 199.1 | -10.4 | 7.3 | greater than 125 times | five times | 730 | – |
| CC(CCc1ccccc1)NCC(O)c1ccc(N)nc1 (stereo not shown) [IV] | high activity in all species under consideration | 114 | 219 | 334 | 33.7 | 54.3 | 63.2 | – | 260 | 333 | 80 | – | – | – | – | – | greater than 125 times | five times | 820 | Gain ([7]; Test 2, control 7.5): 8.4 g/day; Feed Intake ([7]; Test 2, control 19.3): 20.7 g/day; Weight ([7]; Test 2, control 202.3): 214.7 g; Carcass Composition % of Change over Control, Fat ([7]; Test 2): -16.1%; Carcass Composition % of Change over Control, Protein ([7]; Test 2): 5.0% |
| COc1ccc(CC(C)NCC(O)c2ccc(O)c(NC=O)c2)cc1 (stereo not shown) [IX, Formoterol] | high activity in all species under consideration | – | – | – | – | – | – | – | – | – | – | 7.9 | 19.1 | 199.4 | -10.4 | 10.6 | – | – | – | activation at 0.01 µM (Rat Adipose Tissue; [10]): 42%; activation at 0.05 µM (Rat Adipose Tissue; [10]): 91%; activation at 0.25 µM (Rat Adipose Tissue; [10]): 258%; activation at 0.01 µM (Rat Adipose Tissue; [11]): 16%; activation at 0.05 µM (Rat Adipose Tissue; [11]): 70%; activation at 0.25 µM (Rat Adipose Tissue; [11]): 145%; activation at 0.01 µM ([5]; read-out: percent increase compared to control, glycerol production, Test 1, 0.01 μM): 675%; activation at 0.05 µM [5, 10]: 695%; activation at 0.01 µM [6, 10]: 207%; activation at 0.05 µM [6, 10]: 267%; activation at 0.25 µM [6, 10]: 187%; activation at 0.01 µM [6, 11]: 340%; activation at 0.05 µM [6, 11]: 600%; activation at 0.25 µM [6, 11]: 844% |

From patent US4847302A, “Use of certain compounds in livestock food as growth promotants for better feed utilization and improved carcass composition” (Merck & Co., Inc., priority 1988, dated 1989)
